Patent publication US9062078B2, “Substituted 7-azabicyles and their use as orexin receptor modulators” (priority 2013, dated 2015)

Each molecule was assayed against rat orexin 1 receptor (Rattus norvegicus, UniProt P56718) (assay: Rat orexin 1 receptor radioligand binding (competitive, [3H]-SB674042, HEK293 cell preparations)). Details: rOX1 Ki (nm).

Q: With Cc1ccc(-n2nccn2)c(C(=O)N2C3CCC2C(COc2ccc(C(F)(F)F)cn2)C3)n1 (racemic) [Example 47, (±)-(6-methyl-3-(2H-1,2,3-triazol-2-yl)pyridin-2-yl)(2-(((5-(trifluoromethyl)pyridin-2-yl)oxy)methyl)-7-azabicyclo[2.2.1]heptan-7-yl)methanone] as the molecule, how does the Ki read?
A: The Ki was 460 nM.

Q: With CCOc1ccc(C)nc1C(=O)N1C2CCC1C(COc1ccc(Br)cn1)C2 (racemic) [Example 51, (±)-(2-(((5-bromopyridin-2-yl)oxy)methyl)-7-azabicyclo[2.2.1]heptan-7-yl)(3-ethoxy-6-methylpyridin-2-yl)methanone] as the molecule, how does the Ki read?
A: Its Ki is 974 nM.

Same assay, conditions: rat orexin 1 receptor, [3H]-SB674042 competition binding; read-out: rOX1 Ki (nm)

Q: CCOc1ccc(C)nc1C(=O)N1C2CCC1C(COc1ccc(C(F)(F)F)cn1)C2 (racemic) [Example 48, (±)-(3-ethoxy-6-methylpyridin-2-yl)(2-(((5-(trifluoromethyl)pyridin-2-yl)oxy)methyl)-7-azabicyclo[2.2.1]heptan-7-yl)methanone] was tested. Which Ki did it give?
A: Its Ki is 3900 nM.

Q: COc1c(F)cccc1C(=O)N1C2CCC1C(COc1ccc(Br)cn1)C2 (racemic) [Example 50, (±)-(2-(((5-bromopyridin-2-yl)oxy)methyl)-7-azabicyclo[2.2.1]heptan-7-yl)(3-fluoro-2-methoxyphenyl)methanone] was tested. Which Ki did it give?
A: Its Ki is 460 nM.

What follows are molecules tested against human orexin 2 receptor (Homo sapiens (Human), UniProt O43614) (assay: Human orexin 2 receptor radioligand binding (competitive, [3H]-EMPA, HEK293 cell preparations)). Details: hOX2 Ki (nm).
Chain of human orexin 2 receptor (O43614 whole entry): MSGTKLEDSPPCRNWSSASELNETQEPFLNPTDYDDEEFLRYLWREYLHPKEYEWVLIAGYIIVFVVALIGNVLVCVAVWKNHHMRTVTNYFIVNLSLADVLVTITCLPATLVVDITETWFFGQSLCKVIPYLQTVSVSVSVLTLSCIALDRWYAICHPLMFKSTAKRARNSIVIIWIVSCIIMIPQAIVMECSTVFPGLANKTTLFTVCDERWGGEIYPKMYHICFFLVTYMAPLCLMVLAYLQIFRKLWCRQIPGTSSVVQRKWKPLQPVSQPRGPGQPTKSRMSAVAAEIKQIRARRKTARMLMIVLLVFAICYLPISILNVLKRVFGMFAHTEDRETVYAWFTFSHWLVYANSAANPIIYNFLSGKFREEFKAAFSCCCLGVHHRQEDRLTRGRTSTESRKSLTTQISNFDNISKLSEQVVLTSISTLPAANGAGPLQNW

Q: Which Ki does the source give for Cc1ccc(-n2nccn2)c(C(=O)N2C3CCC2C(COc2ccccn2)C3)n1 (racemic) [Example 4, (±)-(6-methyl-3-(2H-1,2,3-triazol-2-yl)pyridin-2-yl)(2-((pyridin-2-yloxy)methyl)-7-azabicyclo[2.2.1]heptan-7-yl)methanone] here?
A: The Ki was 927 nM.

Q: Which Ki does the source give for CCOc1ccccc1C(=O)N1C2CCC1C(COc1nc(C)cc(C)n1)C2 (racemic) [Example 42, (±)-(2-(((4,6-dimethylpyrimidin-2-yl)oxy)methyl)-7-azabicyclo[2.2.1]heptan-7-yl)(2-ethoxyphenyl)methanone] here?
A: The Ki was 253 nM.

Q: With CCOc1ccc(C)nc1C(=O)N1C2CCC1C(COc1ccc(C(F)(F)F)cn1)C2 (racemic) [Example 48, (±)-(3-ethoxy-6-methylpyridin-2-yl)(2-(((5-(trifluoromethyl)pyridin-2-yl)oxy)methyl)-7-azabicyclo[2.2.1]heptan-7-yl)methanone] as the molecule, how does the Ki read?
A: The Ki was 4700 nM.

Q: How did the Ki turn out when CCOc1ccc(C)nc1C(=O)N1C2CCC1C(COc1ccc(Br)cn1)C2 (racemic) [Example 51, (±)-(2-(((5-bromopyridin-2-yl)oxy)methyl)-7-azabicyclo[2.2.1]heptan-7-yl)(3-ethoxy-6-methylpyridin-2-yl)methanone] was run?
A: The Ki was 1800 nM.

Q: Cc1ccc(-n2nccn2)c(C(=O)N2[C@@H]3CC[C@H]2[C@H](COc2ccccn2)C3)n1 [Example 5A, (6-methyl-3-(2H-1,2,3-triazol-2-yl)pyridin-2-yl)((1S,2R,4R)-2-((pyridin-2-yloxy)methyl)-7-azabicyclo[2.2.1]heptan-7-yl)methanone] was tested. Which Ki did it give?
A: The Ki was 428 nM.

Q: With Cc1ccc(-n2nccn2)c(C(=O)N2C3CCC2C(COc2ccccn2)C3)n1 [Example 6, (6-methyl-3-(2H-1,2,3-triazol-2-yl)pyridin-2-yl)((1S,2R,4R)-2-((pyridin-2-yloxy)methyl)-7-azabicyclo[2.2.1]heptan-7-yl)methanone] as the molecule, how does the Ki read?
A: Its Ki is 428 nM.

Same assay, conditions: human orexin 2 receptor, [3H]-EMPA competition binding; read-out: hOX2 Ki (nm)

Q: How did the Ki turn out when Cc1ccc(-n2nccn2)c(C(=O)N2C3CCC2C(COc2ccc(F)cn2)C3)c1 (racemic) [Example 9, (±)-(2-(((5-fluoropyridin-2-yl)oxy)methyl)-7-azabicyclo[2.2.1]heptan-7-yl)(5-methyl-2-(2H-1,2,3-triazol-2-yl)phenyl)methanone] was run?
A: The Ki was 57 nM.

Q: Which Ki does the source give for Cc1ccc(-n2nccn2)c(C(=O)N2C3CCC2C(COc2ccc(C(F)(F)F)cn2)C3)n1 (racemic) [Example 47, (±)-(6-methyl-3-(2H-1,2,3-triazol-2-yl)pyridin-2-yl)(2-(((5-(trifluoromethyl)pyridin-2-yl)oxy)methyl)-7-azabicyclo[2.2.1]heptan-7-yl)methanone] here?
A: Its Ki is 418 nM.

Q: COc1c(F)cccc1C(=O)N1C2CCC1C(COc1ccc(Br)cn1)C2 (racemic) [Example 50, (±)-(2-(((5-bromopyridin-2-yl)oxy)methyl)-7-azabicyclo[2.2.1]heptan-7-yl)(3-fluoro-2-methoxyphenyl)methanone] was tested. Which Ki did it give?
A: Its Ki is 4400 nM.

Q: COc1c(F)cccc1C(=O)N1C2CCC1C(COc1ccc(F)cn1)C2 (racemic) [Example 107, (±)-((3-fluoro-2-methoxyphenyl)(2-(((5-fluoropyridin-2-yl)oxy)methyl)-7-azabicyclo[2.2.1]heptan-7-yl)methanone] was tested. Which Ki did it give?
A: Its Ki is 2200 nM.

Q: With COc1c(F)cccc1C(=O)N1C2CCC1C(COc1ccc(F)cn1)C2 (racemic) [Example 173, (±)-(3-fluoro-2-methoxyphenyl)(2-(((5-fluoropyridin-2-yl)oxy)methyl)-7-azabicyclo[2.2.1]heptan-7-yl)methanone] as the molecule, how does the Ki read?
A: The Ki was 3000 nM.

Q: For O=C(c1cc(F)ccc1-c1ncccn1)N1[C@@H]2CC[C@H]1[C@H](COc1ccccn1)C2 [Example 1, (5-fluoro-2-(pyrimidin-2-yl)phenyl)((1S,2R,4R)-2-((pyridin-2-yloxy)methyl)-7-azabicyclo[2.2.1]heptan-7-yl)methanone], which Ki is on record?
A: The Ki was 276 nM.

Q: With Cc1ccc(-n2nccn2)c(C(=O)N2[C@@H]3CC[C@H]2[C@H](COc2ccc(F)cn2)C3)c1 [Example 10A, ((1S,2R,4R)-2-(((5-fluoropyridin-2-yl)oxy)methyl)-7-azabicyclo[2.2.1]heptan-7-yl)(5-methyl-2-(2H-1,2,3-triazol-2-yl)phenyl)methanone] as the molecule, how does the Ki read?
A: The Ki was 32 nM.

Q: With CCOc1ccc2ccccc2c1C(=O)N1[C@@H]2CC[C@H]1[C@H](Nc1cnc(C(F)(F)F)cn1)C2 [Example 239, (2-ethoxynaphthalen-1-yl)((1S,2R,4R)-2-((5-(trifluoromethyl)pyrazin-2-yl)amino)-7-azabicyclo[2.2.1]heptan-7-yl)methanone] as the molecule, how does the Ki read?
A: Its Ki is 490 nM.

Q: How did the Ki turn out when CCOc1ncc2ccccc2c1C(=O)N1[C@@H]2CC[C@H]1[C@H](Nc1cnc(C(F)(F)F)cn1)C2 [Example 246, (3-ethoxyisoquinolin-4-yl)((1S,2R,4R)-2-((5-(trifluoromethyl)pyrazin-2-yl)amino)-7-azabicyclo[2.2.1]heptan-7-yl)methanone] was run?
A: Its Ki is 1020 nM.

Q: For O=C(c1cccc(F)c1-n1nccn1)N1[C@@H]2CC[C@H]1[C@H](Nc1cnc(C(F)(F)F)cn1)C2 [Example 252, (3-fluoro-2-(2H-1,2,3-triazol-2-yl)phenyl)((1S,2R,4R)-2-((5-(trifluoromethyl)pyrazin-2-yl)amino)-7-azabicyclo[2.2.1]heptan-7-yl)methanone], which Ki is on record?
A: Its Ki is 1230 nM.

Q: With O=C(c1cc(F)ccc1-n1nccn1)N1[C@@H]2CC[C@H]1[C@H](Nc1cnc(C(F)(F)F)cn1)C2 [Example 256, (5-fluoro-2-(2H-1,2,3-triazol-2-yl)phenyl)((1S,2R,4R)-2-((5-(trifluoromethyl)pyrazin-2-yl)amino)-7-azabicyclo[2.2.1]heptan-7-yl)methanone] as the molecule, how does the Ki read?
A: The Ki was 1100 nM.

Q: Which Ki does the source give for O=C(c1cccc(F)c1-c1cnccn1)N1[C@@H]2CC[C@H]1[C@H](Nc1cnc(C(F)(F)F)cn1)C2 [Example 265, (3-fluoro-2-(pyrazin-2-yl)phenyl)-((1S,2R,4R)-2-((5-(trifluoromethyl)pyrazin-2-yl)amino)-7-azabicyclo[2.2.1]heptan-7-yl)methanone] here?
A: The Ki was 188 nM.

Q: Which Ki does the source give for Cc1cccc(C(=O)N2[C@@H]3CC[C@H]2[C@H](Nc2cnc(C(F)(F)F)cn2)C3)c1-c1ncccn1 [Example 273, (3-methyl-2-(pyrimidin-2-yl)phenyl)((1S,2R,4R)-2-((5-(trifluoromethyl)pyrazin-2-yl)amino)-7-azabicyclo[2.2.1]heptan-7-yl)methanone] here?
A: Its Ki is 328 nM.

Q: Which Ki does the source give for Cc1cccc(C(=O)N2[C@@H]3CC[C@H]2[C@H](Nc2ncc(C(F)(F)F)cn2)C3)c1-c1ncccn1 [Example 281, (3-methyl-2-(pyrimidin-2-yl)phenyl)((1S,2R,4R)-2-((5-(trifluoromethyl)pyrimidin-2-yl)amino)-7-azabicyclo[2.2.1]heptan-7-yl)methanone] here?
A: Its Ki is 1200 nM.

Q: How did the Ki turn out when Cc1cccc(C(=O)N2[C@@H]3CC[C@H]2[C@H](Nc2ncc(C(F)(F)F)cn2)C3)c1-c1ncco1 [Example 283, (3-methyl-2-(oxazol-2-yl)phenyl)((1S,2R,4R)-2-((5-(trifluoromethyl)pyrimidin-2-yl)amino)-7-azabicyclo[2.2.1]heptan-7-yl)methanone] was run?
A: The Ki was 417 nM.

Q: For COc1cccc(-c2ncccn2)c1C(=O)N1[C@@H]2CC[C@H]1[C@H](Nc1cnc(C(F)(F)F)cn1)C2 [Example 289, (2-methoxy-6-(pyrimidin-2-yl)phenyl)((1S,2R,4R)-2-((5-(trifluoromethyl)pyrazin-2-yl)amino)-7-azabicyclo[2.2.1]heptan-7-yl)methanone], which Ki is on record?
A: Its Ki is 173 nM.

Q: O=C(c1c(F)cccc1-c1ncccn1)N1[C@@H]2CC[C@H]1[C@H](Nc1cnc(C(F)(F)F)cn1)C2 [Example 290, (2-fluoro-6-(pyrimidin-2-yl)phenyl)((1S,2R,4R)-2-((5-(trifluoromethyl)pyrazin-2-yl)amino)-7-azabicyclo[2.2.1]heptan-7-yl)methanone] was tested. Which Ki did it give?
A: Its Ki is 558 nM.

Q: CCOc1ccc2cccnc2c1C(=O)N1[C@@H]2CC[C@H]1[C@H](Nc1cnc(C(F)(F)F)cn1)C2 [Example 291, (7-ethoxyquinolin-8-yl)((1S,2R,4R)-2-((5-(trifluoromethyl)pyrazin-2-yl)amino)-7-azabicyclo[2.2.1]heptan-7-yl)methanone] was tested. Which Ki did it give?
A: Its Ki is 425 nM.

Q: For Cc1cccc(C(=O)N2[C@@H]3CC[C@H]2[C@H](Nc2ncc(C(F)(F)F)cn2)C3)c1-c1ccccn1 [Example 293, (3-methyl-2-(pyridin-2-yl)phenyl)((1S,2R,4R)-2-((5-(trifluoromethyl)pyrimidin-2-yl)amino)-7-azabicyclo[2.2.1]heptan-7-yl)methanone], which Ki is on record?
A: The Ki was 1100 nM.

Q: For O=C(c1cccc(F)c1-n1nccn1)N1[C@@H]2CC[C@H]1[C@H](Nc1ccc(C(F)(F)F)cn1)C2 [Example 294, (3-fluoro-2-(2H-1,2,3-triazol-2-yl)phenyl)((1S,2R,4R)-2-((5-(trifluoromethyl)pyridin-2-yl)amino)-7-azabicyclo[2.2.1]heptan-7-yl)methanone], which Ki is on record?
A: Its Ki is 1200 nM.

Q: Which Ki does the source give for Cc1cccc(C(=O)N2[C@@H]3CC[C@H]2[C@H](Nc2ccc(C(F)(F)F)cn2)C3)c1-n1nccn1 [Example 295, (3-methyl-2-(2H-1,2,3-triazol-2-yl)phenyl)((1S,2R,4R)-2-((5-(trifluoromethyl)pyridin-2-yl)amino)-7-azabicyclo[2.2.1]heptan-7-yl)methanone] here?
A: Its Ki is 257 nM.

Q: Cc1cccc(C(=O)N2[C@@H]3CC[C@H]2[C@H](Nc2ccc(C(F)(F)F)cn2)C3)c1-c1ncco1 [Example 296, (3-methyl-2-(oxazol-2-yl)phenyl)((1S,2R,4R)-2-((5-(trifluoromethyl)pyridin-2-yl)amino)-7-azabicyclo[2.2.1]heptan-7-yl)methanone] was tested. Which Ki did it give?
A: Its Ki is 114 nM.

Same assay, conditions: read-out: hOX2 Ki (nm)

Q: For O=C(c1ccccc1-n1nccn1)N1C2CCC1C(Nc1cnc(C(F)(F)F)cn1)C2 (single isomer, unassigned) [Example 183a], which Ki is on record?
A: Its Ki is > 10000 nM.

Q: With Cc1ccc(-n2nccn2)c(C(=O)N2[C@H]3CC[C@@H]2[C@@H](COc2ccccn2)C3)n1 [Example 5B, (6-methyl-3-(2H-1,2,3-triazol-2-yl)pyridin-2-yl)((1R,2S,4S)-2-((pyridin-2-yloxy)methyl)-7-azabicyclo[2.2.1]heptan-7-yl)methanone] as the molecule, how does the Ki read?
A: The Ki was > 10000 nM.
